Experiments:
[1] = test system: RSV respiratory tract virus (A long strain); experiment: RSV long CPE assay (cytopathic effect assay), EC50; format: cell-based; conditions: human respiratory syncytial virus, HEp-2, 120 h; Hep2 cells infected with RSV A long strain, 5 days, CCK-8 readout
Protocol: (§1) Detect EC50 and CC50 values of anti RSV respiratory tract virus compounds through the cytopathic effect assay.
Virus strain: RSV respiratory tract virus (A long strain)
(§2) The cell plate was centrifugated (300 rpm) to make the cells adherent to the wall, placed into a 37° C., 5% CO2 incubator overnight.
(§3) 1) the compound in 100% DMSO underwent a semi logarithmic dilution, then was added to the cell plate with a Echo liquid handler. Ensure that the final concentration of DMSO was 1%;
(§4) 2) Cell-control hole: no compound and viruse were added; virus-control hole: no compound was added.
dilute RSV viruses to 100 TCID50/30 μL with medium cultured with 4° C. cells, and then add the diluted viruses to a cell plate (30 μL/hole) with Multidrop® automatic liquid distributor, and then placed into a 37° C., 5% CO2 culture incubator for 5 days.
1) after 5 days, observe the pathological change in each hole.
(§5) 2) add CCK-8 (Dojindo-CK04-20, 6 μL/hole) to 384 well plate with Multidrop® automatic liquid distributor;
(§6) 3) place the plate at a 37° C., 5% CO2 culture incubator for 3˜4 h, read the absorbance value with SPECTRA max 340PC_Molecular device at 450 nm and 630 nm;

[2] = RSV long CPE assay (cytopathic effect assay), CC50 toxicity in vitro; format: cell-based; conditions: human, Hep2 cells, CCK-8 readout, top concentration 100 μM
Protocol: as §1, §2, §3, §4, §5, §6

SMILES | EC50 [1] [nM] | CC50 at 5 days [2] [nM]
O=C(C1CC1)N1CC2(C1)C(=O)N(Cc1nc3c(n1CCCC(F)(F)F)CCCC3)c1cnccc12 [Embodiment 89, 1-(Cyclopropanecarbonyl)-1′-((1-(4,4,4-trifluorobutyl)-4,5,6,7-tetrahydro-1H-benzo[d]imidazol-2-yl)methyl)spiro[azetidine-3,3′-pyrrolo[2,3-c]pyridine]-2′(1′H)-one] | < 100 | > 100000
CCOC(=O)N1CC2(C1)C(=O)N(Cc1nc3c(n1CCCC(F)(F)F)CCC3)c1ccccc12 [Embodiment 104, Ethyl 2′-oxo-1′-((1-(4,4,4-trifluorobutyl)-1,4,5,6-tetrahydrocyclopenta[d]imidazol-2-yl)methyl)spiro[azetidine-3,3′-indoline]-1-carboxylate] | < 100 | > 100000
O=C(C1CC1)N1CC2(C1)C(=O)N(Cc1nc3c(n1CCCC(F)(F)F)CCCC3)c1cc(F)ccc12 [Embodiment 84, 1-(Cyclopropanecarbonyl)-6′-fluoro-1′-((1-(4,4,4-trifluorobutyl)-4,5,6,7-tetrahydro-1H-benzo[d]imidazol-2-yl)methyl)spiro[azetidine-3,3′-indoline]-2′-one] | < 100 | > 100000
CCC(F)(F)Cn1c(CN2C(=O)C3(CN(C(=O)OC(C)C)C3)c3ccccc32)nc2c1CCCC2 [Embodiment 67, Isopropyl 1′-((1-(2,2-difluorobutyl)-4,5,6,7-tetrahydro-1H-benzo[d]imidazol-2-yl)methyl)-2′-oxospiro[azetidine-3,3′-indoline]-1-carboxylate] | 100 to 1000 | > 100000
CC(C)OC(=O)N1CC2(C1)C(=O)N(Cc1nc3c(n1CCCC(F)(F)F)CCCC3)c1ccccc12 [Embodiment 65, Isopropyl 2′-oxo-1′-((1-(4,4,4-trifluorobutyl)-4,5,6,7-tetrahydro-1H-benzo[d]imidazol-2-yl)methyl)spiro[azetidine-3,3′-indoline]-1-carboxylate] | < 100 | > 100000
CC(C)OC(=O)N1CC2(C1)C(=O)N(Cc1nc3c(n1CCCCO)CCC3)c1ccccc12 [Embodiment 103, Isopropyl 1′-((1-(4-hydroxybutyl)-1,4,5,6-tetrahydrocyclopenta[d]imidazol-2-yl)methyl)-2′-oxospiro[azetidine-3,3′-indoline]-1-carboxylate] | < 100 | > 100000
CCOC(=O)N1CC2(C1)C(=O)N(Cc1nc3c(n1CCCC(F)(F)F)CCCC3)c1cc(F)ccc12 [Embodiment 83, Ethyl 6′-fluoro-2′-oxo-1′-((1-(4,4,4-trifluorobutyl)-4,5,6,7-tetrahydro-1H-benzo[d]imidazol-2-yl)methyl)spiro[azetidine-3,3′-indoline]-1-carboxylate] | < 100 | > 100000
CCOC(=O)N1CC2(C1)C(=O)N(Cc1nc3c(n1CCCCF)CCCC3)c1ccccc12 [Embodiment 73] | < 100 | > 100000
CC(C)S(=O)(=O)N1CC2(C1)C(=O)N(Cc1nc3c(n1CCCC(F)(F)F)CCCC3)c1ccccc12 [Embodiment 99, 1-(Isopropylsulfonyl)-1′-((1-(4,4,4-trifluorobutyl)-4,5,6,7-tetrahydro-1H-benzo[d]imidazol-2-yl)methyl)spiro[azetidine-3,3′-indoline]-2′-one] | < 100 | > 100000
CC(C)OC(=O)N1CC2(C1)C(=O)N(Cc1nc3c(n1CCCC(F)(F)F)C(O)CCC3)c1ccccc12 (stereo not drawn) [Embodiment 109, Isopropyl 1′-((7-hydroxy-1-(4,4,4-trifluorobutyl)-4,5,6,7-tetrahydro-1H-benzo[d]imidazol-2-yl)methyl)-2′-oxospiro[azetidine-3,3′-indoline]-1-carboxylate] | 100 to 1000 | > 100000
CC(=O)N1CC2(C1)C(=O)N(Cc1nc3c(n1CCCC(F)(F)F)CCCC3)c1ccccc12 [Embodiment 92, 1-Acetyl-1′-((1-(4,4,4-trifluorobutyl)-4,5,6,7-tetrahydro-1H-benzo[d]imidazol-2-yl)methyl)spiro[azetidine-3,3′-indoline]-2′-one] | < 100 | > 100000
CC(C)OC(=O)N1CC2(C1)C(=O)N(Cc1nc3c(n1CCCCO)CCCC3)c1ccc(Br)cc12 [Embodiment 78, Isopropyl 5′-bromo-1′-((1-(4-hydroxybutyl)-4,5,6,7-tetrahydro-1H-benzo[d]imidazol-2-yl)methyl)-2′-oxospiro[azetidine-3,3′-indoline]-1-carboxylate] | < 100 | > 100000
CC(C)C(=O)N1CC2(C1)C(=O)N(Cc1nc3c(n1CCCC(F)(F)F)CCC3)c1ccccc12 [Embodiment 105, 1-Isobutyryl-1′-((1-(4,4,4-trifluorobutyl)-1,4,5,6-tetrahydrocyclopenta[d]imidazol-2-yl)methyl)spiro[azetidine-3,3′-indoline]-2′-one] | < 100 | > 100000
CC(C)OC(=O)N1CC2(C1)C(=O)N(Cc1nc3c(n1CCCC(F)(F)F)CCCC3)c1cc(F)ccc12 [Embodiment 82, Isopropyl 6′-fluoro-2′-oxo-1′-((1-(4,4,4-trifluorobutyl)-4,5,6,7-tetrahydro-1H-benzo[d]imidazol-2-yl)methyl)spiro[azetidine-3,3′-indoline]-1-carboxylate] | < 100 | > 100000
CC(C)OC(=O)N1CC2(C1)C(=O)N(Cc1nc3c(n1CCCC(F)(F)F)CCCC3)c1ccc(Cl)cc12 [Embodiment 80, Isopropyl 5′-chloro-2′-oxo-1′-((1-(4,4,4-trifluorobutyl)-4,5,6,7-tetrahydro-1H-benzo[d]imidazol-2-yl)methyl)spiro[azetidine-3,3′-indoline]-1-carboxylate] | < 100 | > 100000
O=C1N(Cc2nc3c(n2CCCC(F)(F)F)CCCC3)c2ccccc2C12CN(S(=O)(=O)C1CC1)C2 [Embodiment 98, 1-(Cyclopropylsulfonyl)-1′-((1-(4,4,4-trifluorobutyl)-4,5,6,7-tetrahydro-1H-benzo[d]imidazol-2-yl)methyl)spiro[azetidine-3,3′-indoline]-2′-one] | < 100 | > 100000
Cc1nc(CN2C(=O)C3(CN(C(=O)OC(C)C)C3)c3ccccc32)n(CCCCO)c1C [Embodiment 100, Isopropyl 1′-((1-(4-hydroxybutyl)-4,5-dimethyl-1H-imidazol-2-yl)methyl)-2′-oxospiro[azetidine-3,3′-indoline]-1-carboxylate] | < 100 | > 100000
CCOC(=O)N1CC2(C1)C(=O)N(Cc1nc3c(n1CCCS(C)(=O)=O)CCCC3)c1ccccc12 [Embodiment 76, Ethyl 1′-((1-(3-(methylsulfonyl)propyl)-4,5,6,7-tetrahydro-1H-benzo[d]imidazol-2-yl)methyl)-2′-oxospiro[azetidine-3,3′-indoline]-1-carboxylate] | < 100 | > 100000
CCOC(=O)N1CC2(C1)C(=O)N(Cc1nc3c(n1CCC(C)C)CCCC3)c1ccccc12 [Embodiment 72, Ethyl 1′-((1-isopentyl-4,5,6,7-tetrahydro-1H-benzo[d]imidazol-2-yl)methyl)-2′-oxospiro[azetidine-3,3′-indoline]-1-carboxylate] | < 100 | > 100000
CS(=O)(=O)N1CC2(C1)C(=O)N(Cc1nc3c(n1CCCC(F)(F)F)CCCC3)c1ccccc12 [Embodiment 97, 1-(Methylsulfonyl)-1′-((1-(4,4,4-trifluorobutyl)-4,5,6,7-tetrahydro-1H-benzo[d]imidazol-2-yl)methyl)spiro[azetidine-3,3′-indoline]-2′-one] | < 100 | > 100000
CC(C)OC(=O)N1CC2(C1)C(=O)N(Cc1nc3c(n1CC(=O)C(C)C)CCCC3)c1ccccc12 [Embodiment 68, Isopropyl 1′-((1-(3-methyl-2-oxobutyl)-4,5,6,7-tetrahydro-1H-benzo[d]imidazol-2-yl)methyl)-2′-oxospiro[azetidine-3,3′-indoline]-1-carboxylate] | 100 to 1000 | > 100000
CCOC(=O)N1CC2(C1)C(=O)N(Cc1nc3c(n1CCCC(F)(F)F)CCCC3C)c1ccccc12 (stereo not drawn) [Embodiment 110, Ethyl 1′-((4-methyl-1-(4,4,4-trifluorobutyl)-4,5,6,7-tetrahydro-1H-benzo[d]imidazol-2-yl)methyl)-2′-oxospiro[azetidine-3,3′-indoline]-1-carboxylate] | 100 to 1000 | > 100000
CC(C)OC(=O)N1CC2(C1)C(=O)N(Cc1nc3c(n1CC(F)(F)C(C)C)CCCC3)c1ccccc12 [Embodiment 69, Isopropyl 1′-((1-(2,2-difluoro-3-methylbutyl)-4,5,6,7-tetrahydro-1H-benzo[d]imidazol-2-yl)methyl)-2′-oxospiro[azetidine-3,3′-indoline]-1-carboxylate] | < 100 | > 100000
CC(C)OC(=O)N1CC2(C1)C(=O)N(Cc1nc3c(n1CCCC(F)F)CCCC3)c1ccccc12 [Embodiment 64, Isopropyl 1′-((1-(4,4-difluorobutyl)-4,5,6,7-tetrahydro-1H-benzo[d]imidazol-2-yl)methyl)-2′-oxospiro[azetidine-3,3′-indoline]-1-carboxylate] | < 100 | > 100000

— patent US9850251B2, “Imidazole derivative used as antiviral agent and use therof in preparation of medicament” (priority 2013, dated 2017)
